Where a name gives a salt, the structure may show the parent alone.
Target: T1, recombinant IRAK-4 kinase (Homo sapiens, UniProt Q9NWZ3)
T1 construct: purchased Millipore, USA
T1 sequence (Q9NWZ3 1-460): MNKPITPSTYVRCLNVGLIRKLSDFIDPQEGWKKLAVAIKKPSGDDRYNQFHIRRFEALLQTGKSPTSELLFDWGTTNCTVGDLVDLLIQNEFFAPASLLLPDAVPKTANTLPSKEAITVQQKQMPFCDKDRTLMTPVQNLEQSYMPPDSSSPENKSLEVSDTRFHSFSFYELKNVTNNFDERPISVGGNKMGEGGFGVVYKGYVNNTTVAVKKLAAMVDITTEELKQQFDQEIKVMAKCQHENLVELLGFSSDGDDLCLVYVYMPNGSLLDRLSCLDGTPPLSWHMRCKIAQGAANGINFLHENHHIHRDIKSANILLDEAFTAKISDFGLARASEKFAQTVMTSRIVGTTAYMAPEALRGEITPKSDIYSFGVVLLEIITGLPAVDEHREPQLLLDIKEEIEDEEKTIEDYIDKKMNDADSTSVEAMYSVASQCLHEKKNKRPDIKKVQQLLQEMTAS
Experiment: IRAK-4 Biochemical Assay (TR-FRET, percent inhibition)
Settings: TR-FRET, 20 μM ATP, 100 nM Biotin Histone H3; for inhibition at 0.1 µM: read-out: % inhibition of IRAK-4 @0.1 μM, compound at 0.1 μM; for inhibition at 1 µM: read-out: % inhibition of IRAK-4 @ 1 μM, compound at 1 μM
In short: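 IRAK-4 pre-incubated with compound 30 min at room temperature in Tris-HCl pH 7.5 buffer with MgCl2, MnCl2 and DTT, then reacted 30 min with 100 nM biotin-histone H3 and 20 μM ATP. EDTA stop with Eu-anti-phospho-H3 (Ser10) and APC-streptavidin. Percent inhibition derived from the 665/615 nm emission ratio at 340 nm excitation.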

`O=C(Nc1cc2sc(N3CCOCC3)nc2nc1N1CCC(O)(CO)CC1)c1cccc(N2CC[C@H](O)C2)n1` [Example 8, (S)-N-(5-(4-hydroxy-4-(hydroxymethyl)piperidin-1-yl)-2-morpholinothiazolo[4,5-b]pyridin-6-yl)-6-(3-hydroxypyrrolidin-1-yl)picolinamide hydrochloride] was tested, and the inhibition at 0.1 µM was 97% and the inhibition at 1 µM was 98%.

`CC(N)C(=O)O[C@H]1CCN(c2cccc(C(=O)Nc3cc4sc(N5CCOCC5)nc4nc3N3CCCCC3)n2)C1` (stereo partly drawn) [Example 57, (S)-1-(6-((2-morpholino-5-(piperidin-1-yl)thiazolo[4,5-b]pyridin-6-yl)carbamoyl)pyridin-2-yl)pyrrolidin-3-ylalaninate] gave an inhibition at 0.1 µM of 97% and an inhibition at 1 µM of 98%.

For `NC1CCN(c2ccn3ncc(C(=O)Nc4cc5sc(N6CCOCC6)nc5nc4C4CC4)c3n2)C1` (stereo not shown) [Example 23, 5-(3-aminopyrrolidin-1-yl)-N-(5-cyclopropyl-2-morpholinothiazolo[4,5-b]pyridin-6-yl)pyrazolo[1,5-a]pyrimidine-3-carboxamide hydrochloride], the inhibition at 0.1 µM was 86% and the inhibition at 1 µM was 97%.

`O=C(Nc1cc2sc(N3CCOCC3)nc2nc1N1CCC[C@@H](O)C1)c1cccc(N2CCCCCC2)n1` [Example 39, (R)-6-(azepan-1-yl)-N-(5-(3-hydroxypiperidin-1-yl)-2-morpholinothiazolo[4,5-b]pyridin-6-yl)picolinamide] gave an inhibition at 0.1 µM of 83% and an inhibition at 1 µM of 98%.

For `O=C(Nc1cc2sc(N3CCOCC3)nc2nc1N1CCCCC1)c1cccc(N2CC[C@H](O)C2)n1` [Example 42, (S)-6-(3-hydroxypyrrolidin-1-yl)-N-(2-morpholino-5-(piperidin-1-yl)thiazolo[4,5-b]pyridin-6-yl)picolinamide hydrochloride], the inhibition at 0.1 µM was 94% and the inhibition at 1 µM was 98%.

Work on `O=C(Nc1cc2sc(N3CCOCC3)nc2nc1N1CCCCC1)c1ccnc(N2CC[C@H](O)C2)n1` [Example 60, (S)-2-(3-hydroxypyrrolidin-1-yl)-N-(2-morpholino-5-(piperidin-1-yl)thiazolo[4,5-b]pyridin-6-yl)pyrimidine-4-carboxamide] yielded an inhibition at 0.1 µM of 88% and an inhibition at 1 µM of 94%.

`Cc1cc(-c2nc(C(=O)Nc3cc4oc(N5CCOCC5)nc4nc3N3CC[C@@H](OCC4CC4)C3)co2)ccn1` [Example 95, (R)-N-(5-(3-(cyclopropylmethoxy)pyrrolidin-1-yl)-2-morpholinooxazolo[4,5-b]pyridin-6-yl)-2-(2-methylpyridin-4-yl)oxazole-4-carboxamide] was tested, and the inhibition at 0.1 µM was 80% and the inhibition at 1 µM was 97%.

Compound `O=C(Nc1cc2sc(N3CCOCC3)nc2nc1N1CCCCC1)c1cccc(-n2cnc(CO)c2)n1` [Example 67, 6-(4-(hydroxymethyl)-1H-imidazol-1-yl)-N-(2-morpholino-5-(piperidin-1-yl)thiazolo[4,5-b]pyridin-6-yl)picolinamide] has an inhibition at 0.1 µM of 100% and an inhibition at 1 µM of 101%.

`Cc1cc(-c2nc(C(=O)Nc3cc4oc(N5CCOCC5)nc4nc3N3CCCC3=O)co2)ccn1` [Example 89, 2-(2-methylpyridin-4-yl)-N-(2-morpholino-5-(2-oxopyrrolidin-1-yl)oxazolo[4,5-b]pyridin-6-yl)oxazole-4-carboxamide hydrochloride] gave an inhibition at 0.1 µM of 26% and an inhibition at 1 µM of 73%.

With `COC(=O)C1CN(c2cccc(C(=O)Nc3cc4sc(N5CCOCC5)nc4nc3N3CCCCC3)n2)C(=O)N1` (stereo not shown) [Example 48, methyl 1-(6-((2-morpholino-5-(piperidin-1-yl)thiazolo[4,5-b]pyridin-6-yl)carbamoyl)pyridin-2-yl)-2-oxoimidazolidine-4-carboxylate] the inhibition at 0.1 µM was 96% and the inhibition at 1 µM was 100%.

With `NCCNc1ccn2ncc(C(=O)Nc3cc4sc(N5CCOCC5)nc4nc3C3CC3)c2n1` [Example 22, 5-((2-aminoethyl)amino)-N-(5-cyclopropyl-2-morpholinothiazolo[4,5-b]pyridin-6-yl)pyrazolo[1,5-a]pyrimidine-3-carboxamide] the inhibition at 0.1 µM was 97% and the inhibition at 1 µM was 98%.

With `Nc1cccc(-c2nc(C(=O)Nc3cc4sc(N5CCOCC5)nc4nc3N3CCCCC3)co2)n1` [Example 11, 2-(6-aminopyridin-2-yl)-N-(2-morpholino-5-(piperidin-1-yl)thiazolo[4,5-b]pyridin-6-yl)oxazole-4-carboxamide hydrochloride] the inhibition at 0.1 µM was 99% and the inhibition at 1 µM was 98%.

In the case of `CCOC(=O)O[C@H]1CCN(c2cccc(C(=O)Nc3cc4sc(N5CCOCC5)nc4nc3N3CCCCC3)n2)C1` [Example 58, (S)-ethyl (1-(6-((2-morpholino-5-(piperidin-1-yl)thiazolo[4,5-b]pyridin-6-yl)carbamoyl)pyridin-2-yl)pyrrolidin-3-yl)carbonate], the inhibition at 0.1 µM is reported as 71% and the inhibition at 1 µM is reported as 96%.

`Nc1cccc(-c2nc(C(=O)Nc3cc4oc(N5CCOCC5)nc4nc3N3CC[C@@H](O)C3)co2)n1` [Example 87, (R)-2-(6-aminopyridin-2-yl)-N-(5-(3-hydroxypyrrolidin-1-yl)-2-morpholinooxazolo[4,5-b]pyridin-6-yl)oxazole-4-carboxamide hydrochloride] was tested, and the inhibition at 0.1 µM was 21% and the inhibition at 1 µM was 57%.

Compound `Cc1cc(-c2ccc(C(=O)Nc3cc4oc(N5CCOCC5)nc4nc3N3CC[C@@H](O)C3)o2)ccn1` [Example 91, (R)-N-(5-(3-hydroxypyrrolidin-1-yl)-2-morpholinooxazolo[4,5-b]pyridin-6-yl)-5-(2-methylpyridin-4-yl)furan-2-carboxamide hydrochloride] has an inhibition at 0.1 µM of 45% and an inhibition at 1 µM of 92%.

With `Cc1nc2nc(N3CCOCC3)sc2cc1NC(=O)c1cccc(N2CCC(O)C2)n1` (stereo not shown) [Example 43, 6-(3-hydroxypyrrolidin-1-yl)-N-(5-methyl-2-morpholinothiazolo[4,5-b]pyridin-6-yl)picolinamide] the inhibition at 0.1 µM was 50% and the inhibition at 1 µM was 92%.

In the case of `O=C(Nc1cc2sc(N3CCOCC3)nc2nc1N1CCC[C@@H](O)C1)c1cccc(N2CC[C@H](O)C2)n1` [Example 28, N-(5-((R)-3-hydroxypiperidin-1-yl)-2-morpholinothiazolo[4,5-b]pyridin-6-yl)-6-((S)-3-hydroxypyrrolidin-1-yl)picolinamide], the inhibition at 0.1 µM is reported as 90% and the inhibition at 1 µM is reported as 93%.

With `Nc1cc(-c2cccc(C(=O)Nc3cc4sc(N5CCOCC5)nc4nc3N3CCCCC3)n2)ccn1` [Example 83, 2′-amino-N-(2-morpholino-5-(piperidin-1-yl)thiazolo[4,5-b]pyridin-6-yl)-[2,4′-bipyridine]-6-carboxamide] the inhibition at 0.1 µM was 99% and the inhibition at 1 µM was 98%.

Compound `Nc1cc(-c2nc(C(=O)Nc3cc4oc(N5CCOCC5)nc4nc3N3CC[C@@H](O)C3)co2)c(Cl)cn1` [Example 88, (R)-2-(2-amino-5-chloropyridin-4-yl)-N-(5-(3-hydroxypyrrolidin-1-yl)-2-morpholinooxazolo[4,5-b]pyridin-6-yl)oxazole-4-carboxamide] has an inhibition at 0.1 µM of 15%.

Compound `O=C(Nc1cc2sc(N3CCOCC3)nc2nc1N1CCCCC1)c1cccc(N2CCC(O)CC2)n1` [Example 56, 6-(4-hydroxypiperidin-1-yl)-N-(2-morpholino-5-(piperidin-1-yl)thiazolo[4,5-b]pyridin-6-yl)picolinamide] has an inhibition at 0.1 µM of 95% and an inhibition at 1 µM of 96%.

In the case of `Cc1cc(-c2nc(C(=O)Nc3cc4oc(N5CCOCC5)nc4nc3N3CCCC(O)(CO)C3)co2)ccn1` (stereo not shown) [Example 15, N-(5-(3-hydroxy-3-(hydroxymethyl)piperidin-1-yl)-2-morpholinooxazolo[4,5-b]pyridin-6-yl)-2-(2-methylpyridin-4-yl)oxazole-4-carboxamide hydrochloride], the inhibition at 0.1 µM is reported as 96% and the inhibition at 1 µM is reported as 100%.

`Nc1cc(-c2cccc(C(=O)Nc3cc4sc(N5CCOCC5)nc4nc3C3CC3)n2)ccn1` [Example 52, 2′-amino-N-(5-cyclopropyl-2-morpholinothiazolo[4,5-b]pyridin-6-yl)-[2,4′-bipyridine]-6-carboxamide] was tested, and the inhibition at 0.1 µM was 95% and the inhibition at 1 µM was 96%.

In the case of `Cn1cc(-c2nc(C(=O)Nc3cc4sc(N5CCOCC5)nc4nc3N3CCCCC3)co2)cc(F)c1=O` [Example 13, 2-(5-fluoro-1-methyl-6-oxo-1,6-dihydropyridin-3-yl)-N-(2-morpholino-5-(piperidin-1-yl)thiazolo[4,5-b]pyridin-6-yl)oxazole-4-carboxamide], the inhibition at 0.1 µM is reported as 98% and the inhibition at 1 µM is reported as 98%.

Compound `O=C(Nc1cc2sc(N3CCOCC3)nc2nc1C1CC1)c1cnn2ccc(N3CCC[C@H](O)C3)nc12` [Example 100, (S)-N-(5-cyclopropyl-2-morpholinothiazolo[4,5-b]pyridin-6-yl)-5-(3-hydroxypiperidin-1-yl)pyrazolo[1,5-a]pyrimidine-3-carboxamide] has an inhibition at 0.1 µM of 96% and an inhibition at 1 µM of 99%.

`Cc1ccc(-c2nc3nc(N4CCOCC4)oc3cc2NC(=O)c2coc(-c3ccnc(C)c3)n2)nc1` [Example 14, N-(5-(5-methylpyridin-2-yl)-2-morpholinooxazolo[4,5-b]pyridin-6-yl)-2-(2-methylpyridin-4-yl)oxazole-4-carboxamide] showed an inhibition at 0.1 µM of 99% and an inhibition at 1 µM of 100%.
